Tests used:
[1] = tested on: Plasmodium falciparum; assay: Hit confirmation in dose-response curve in NF54 nanoGlo assay, at 72h; format: functional, organism-based, Erythrocyte; set-up: timepoint 72 hour; conditions: Plasmodium falciparum, NF54, Erythrocyte, 72 h
[2] = tested on: Plasmodium falciparum; assay: Hit confirmation in dose-response curve in NF54 pLDH assay, at 72h; format: functional, organism-based; set-up: timepoint 72 hour; conditions: NF54, Erythrocyte
[3] = tested on: Plasmodium falciparum; assay: Hit confirmation in dose-response curve in Dd2 pLDH assay, at 72h; format: functional, organism-based; set-up: timepoint 72 hour; conditions: Dd2, Erythrocyte
[4] = tested on: Plasmodium falciparum; assay: Hit confirmation in dose-response curve in NF54 nanoGlo assay, at 12h; format: functional, organism-based, Erythrocyte; set-up: timepoint 12 hour; conditions: Plasmodium falciparum, NF54, Erythrocyte, 12 h
[5] = Hit confirmation in dose-response curve in HepG2 cytotoxicity assay, at 72h; format: toxicity, cell-based; set-up: timepoint 72 hour; conditions: human, HepG2 cells

Compound	IC50 [1]	IC50 [2]	IC50 [3]	IC50 [4]	IC50 at 72 h [5]
COc1ccc([C@H](NC(=O)CCc2ccccc2)c2c(O)ccc3ccccc23)cc1	2.45 µM	9.33 µM	5.62 µM	1.48 µM	> 10 µM
Cc1ccc(N(Cc2cccs2)C(=O)c2cccs2)cc1Cl	3.39 µM	9.33 µM	4.68 µM	5.75 µM	> 10 µM
Brc1cccc(-c2ccc(-c3cc(-c4ccccc4)nnc3-c3ccccc3)o2)c1	6.61 µM	> 10 µM	> 10 µM	2 µM	> 10 µM
CC(C)CCn1nnnc1[C@]1(N(C)C)CCCN(C(=O)c2cccn2C)C1	0.309 µM	> 10 µM	> 10 µM	0.275 µM	> 10 µM
O=C(NC1=NN2C(=NC(c3ccc(Cl)cc3)=C[C@H]2c2ccc(F)cc2)N1)c1ccc(Cl)cc1	2.29 µM	2.95 µM	3.16 µM	4.17 µM	> 10 µM
Cc1ccc(N2C(=O)C[C@]3(CC3(c3ccccc3)c3ccccc3)C2=O)cc1	1.51 µM	> 10 µM	> 10 µM	0.525 µM	> 10 µM
CNCCc1c(-c2ccccc2)[nH]n(-c2ccccc2)c1=O	1.7 µM	2.82 µM	3.16 µM	2.75 µM	> 10 µM
O=C(Nc1nncs1)c1cccc(C(=O)Nc2nncs2)n1	1.95 µM	3.24 µM	3.31 µM	> 10 µM	> 10 µM
Oc1nc(N2CCOC3(CCCC3)C2)ncc1F	2.57 µM	4.27 µM	> 10 µM	> 10 µM	> 10 µM
CC1=CC(=[N+](CCO)CCO)C=C/C1=C(\c1ccc(N(CCO)CCO)cc1C)c1ccccc1Cl	0.0871 µM	0.166 µM	0.0871 µM	7.41 µM	> 10 µM
CCC(=O)N(Cc1ccc(-c2ccc(Cl)cc2)o1)[C@H]1CCS(=O)(=O)C1	1.66 µM	5.13 µM	2.95 µM	3.39 µM	> 10 µM
O=C(c1ccccc1F)N(Cc1nccn1Cc1c(F)cccc1Cl)C1CC1	2.75 µM	6.92 µM	> 10 µM	1.32 µM	> 10 µM
CN(Cc1ccsc1)C(=O)c1cc2ccccc2[nH]1	> 10 µM	> 10 µM	> 10 µM	> 10 µM	> 10 µM
CCc1ccc(C2=C[C@@H](c3cccc(OC)c3)n3ncc(C(=O)Nc4ccc(C)cc4)c3N2)cc1	2.63 µM	8.71 µM	3.8 µM	3.8 µM	> 10 µM
c1ccc2c[n+](Cc3ccc4ccccc4n3)ccc2c1	1.95 µM	2.57 µM	2.45 µM	> 10 µM	> 10 µM
O=C(c1ccccc1)c1ccc(O)c(CN2CCCN(c3ccc(C(F)(F)F)cn3)CC2)c1O	1.82 µM	3.72 µM	3.09 µM	2.82 µM	> 10 µM
CC(C)O[C@@H]1CCN(C[C@H](O)c2ccc(C(F)(F)F)cc2)C1	2.09 µM	3.09 µM	2.82 µM	3.31 µM	> 10 µM
CN(C)CC(O)COc1ccc(S(=O)(=O)c2ccc(OCC(O)CN(C)C)c(Cl)c2)cc1Cl (stereo not given)	1.51 µM	2.45 µM	1.38 µM	3.98 µM	> 10 µM
Cc1ccccc1C(=O)N(Cc1cccc(F)c1)c1ccc(CC(=O)NCCN2CCCCC2)cc1	2.57 µM	2.75 µM	4.68 µM	> 10 µM	> 10 µM
CNc1nc(NCCc2ccccc2)nc2ccccc12	0.912 µM	1.86 µM	0.661 µM	> 10 µM	> 10 µM
CN1CCN(C2(CNc3ccnc4ccccc34)CCCC2)CC1	0.479 µM	0.38 µM	0.355 µM	0.708 µM	> 10 µM
CC1CCC(c2noc([C@H]3CCO[C@@H]3c3cncc(Br)c3)n2)CC1 (stereo not given in full)	2.88 µM	4.47 µM	3.89 µM	> 10 µM	> 10 µM
c1ccc(C2=NN(c3ccc(-c4cc(-c5ccccc5)[n+](-c5ccccc5)c(-c5ccccc5)c4)cc3)[C@H](c3ccccc3)C2)cc1	0.631 µM	1.32 µM	0.955 µM	2.19 µM	4.07 µM
CC(=O)Nc1ccc(-c2cn3c4ccccc4ccc3[n+]2C)cc1	0.49 µM	0.263 µM	1.41 µM	> 10 µM	> 10 µM

Further lines, with some results ahead:

IC50 [1]	IC50 [2]	IC50 [3]	IC50 [4]	Compound	IC50 at 72 h [5]
0.724 µM	0.741 µM	0.661 µM	> 10 µM	CC[n+]1c(/C=C/N(C)c2ccccc2)oc2ccccc21	> 10 µM
3.31 µM	4.47 µM	4.37 µM	5.62 µM	Cc1ccc(OCCNc2cc([C@H]3C[C@H](N)C3)nc(C3CC3)n2)cc1C	> 10 µM
2.19 µM	4.07 µM	3.09 µM	3.89 µM	Oc1cc(OCc2ccccc2F)ccc1-c1[nH]ncc1-c1ccccc1	> 10 µM
0.832 µM	0.759 µM	1 µM	> 10 µM	CCOc1ccc(-[n+]2cc(-c3ccccc3)n3c2CCC3)cc1	> 10 µM
2.75 µM	> 10 µM	> 10 µM	1.51 µM	Cc1ccc([C@H](c2c[nH]c3ccccc23)N(C)C(=O)C(C)C)cc1	> 10 µM
2 µM	3.8 µM	3.47 µM	> 10 µM	CN(C)c1nc(N)cc(-c2cccc3cccnc23)n1	> 10 µM
1.74 µM	2.45 µM	2.82 µM	> 10 µM	O=C(COc1ccccc1)Nc1ccc2c(c1)C(O)=Nc1cccnc1O2	> 10 µM
0.759 µM	1.41 µM	1.51 µM	6.17 µM	C[n+]1ccc(-c2ncc(-c3ccccc3)o2)c2ccccc21	> 10 µM
1.82 µM	3.16 µM	3.39 µM	> 10 µM	C=C1C(C)C2C(Cc3c[nH]c4ccccc34)NC(=O)C23C(=O)CC(O)C(O)CC(C)C/C=C/C3C1O (stereo not given)	> 10 µM
2.57 µM	6.46 µM	6.46 µM	8.13 µM	S=c1cc(-c2ccccc2)n(Cc2ccco2)c2c1CCCC2	> 10 µM
2.04 µM	3.47 µM	3.47 µM	4.79 µM	CCc1cc(N2C[C@@H]3NC(=O)CN(C)Cc4ccc(OC)c(c4)Oc4cccc(c4)CO[C@H]3C2)nc(N(C)C)n1	> 10 µM
2.45 µM	9.55 µM	6.61 µM	> 10 µM	CC1CCN(c2nccnc2Oc2ccc(C(=O)NCc3ccccc3Cl)cc2)CC1	> 10 µM
1.66 µM	3.31 µM	1.91 µM	> 10 µM	COc1c2c(cc3c1[C@@H](C#CCOc1ccccc1)[N+](C)(C)CC3)OCO2	> 10 µM
